Reference: patent US20210127678A1, “ESTERS OF HETEROCYCLIC COMPOUNDS HAVING A NEMATOCIDAL ACTIVITY, THEIR AGRONOMIC COMPOSITIONS AND THEIR USE” (ISAGRO, S.P.A., priority 2018, published 2021)

How the values were obtained:
Meloidogyne sp. = assay: Determination of nematocidal activity against Meloidogyne sp. on potted cucumbers, cv Chinese Long; type: in vivo; conditions: 30 days after transplantation; for % INFESTED ROOT / ROOT DEVELOPMENT / ALL INDEX scale 0-10: 4,000 g/hectare; for ROOT DEVELOPMENT: 100% = healthy comparative root; for ALL INDEX scale 0-10: Bridge-Page infestation scale
Method: Determination of Nematocidal Activity Against Meloidogyne sp. The tests aimed at testing the nematocidal activity of the product under examination were carried out using inoculae taken from a farming of Meloidogyne sp. maintained on potted tomato and cucumber plants and grown in greenhouses. To carry out the experiments, portions of roots having a good number of galls and soil were taken from the infested pots, in which larvae were present starting from the second stage of age. New pots having a diameter of 15 cm were half filled with sterile soil. The portions of infested roots, previously cleaned up, were placed on the same in order to be able to correctly assess the degree of infestation and ensure that each pot contains the same nematic charge. 200-300 g of infested soil were subsequently added, then covered with a thin layer of sterile soil. The treatment was carried out by pouring 100 ml of solution on the surface of the soil, in which the product to be tested was dissolved. Tomato or cucumber seedlings at the stage of two or three true leaves were transplanted in the pots thus prepared, one or seven days after application. Different cultivars of tomato or cucumber were used, having a different sensitivity to the parasite and different growth times. In particular, a variety of ornamental tomatoes (cv Microtom) was used for assessing the final production, whose seedlings are small in size and are able to reach the ripeness of the fruit in pots and under greenhouse conditions in about two months The containment capacity of the parasite was detected, 30 and 60 days after transplantation, considering the development of the root system (where 100% is the development achieved by the healthy comparative root) and the presence of galls on the roots. This was estimated using the infestation scale proposed by Bridge-Page, according to which the value zero corresponds to 0% of the root affected and the value 10 corresponds to 100% of infested root. […] 2, 4, 12, 13, 17 and the Compound CR1, on cucumbers, cv Chinese Long, at a dose of 4,000 g/hectare, effecting the survey 30 days after transplantation. […] 2, 4, 8, 12, 13, 17, 127, 129 and the Compound CR1, on cucumbers, cv Chinese Long, at doses of 2,000 g/hectare, 1,000 g/hectare and 500 g/hectare effecting the survey 30 days after transplantation.

[1] = system: cucumbers, cv Chinese Long; assay: Phytotoxicity on cucumbers, cv Chinese Long (soil treatment of potted plants); type: in vivo, cucumber; conditions: zero=no symptoms, 10=destroyed plant
Method: New pots having a diameter of 15 cm were half filled with sterile soil. The portions of infested roots, previously cleaned up, were placed on the same in order to be able to correctly assess the degree of infestation and ensure that each pot contains the same nematic charge. 200-300 g of infested soil were subsequently added, then covered with a thin layer of sterile soil. The treatment was carried out by pouring 100 ml of solution on the surface of the soil, in which the product to be tested was dissolved. Tomato or cucumber seedlings at the stage of two or three true leaves were transplanted in the pots thus prepared, one or seven days after application. Different cultivars of tomato or cucumber were used, having a different sensitivity to the parasite and different growth times. In particular, a variety of ornamental tomatoes (cv Microtom) was used for assessing the final production, whose seedlings are small in size and are able to reach the ripeness of the fruit in pots and under greenhouse conditions in about two months The product was evaluated considering the possible phytotoxic effects that may compromise the development of the plant (in this case a zero-ten scale was used, according to which zero=no symptoms, 10=destroyed plant) and the effectiveness against nematodes. […] 2, 4, 12, 13, 17 included in general formula (I) and CR1, described in JP 2000038379 instead of the compound having general formula (I).

Compound	% INFESTED ROOT (Meloidogyne sp.)	ROOT DEVELOPMENT (Meloidogyne sp.)	ALL INDEX scale 0-10 (Meloidogyne sp.)	GALL INDEX (scale 0-10) (Meloidogyne sp.; dose applied 0.5 kg ai/ha)	WEIGHT OF FRESH PLANT (Meloidogyne sp.; dose applied 0.5 kg ai/ha)	GALL INDEX (scale 0-10) (Meloidogyne sp.; dose applied 1 kg ai/ha)	WEIGHT OF FRESH PLANT (Meloidogyne sp.; dose applied 1 kg ai/ha)	GALL INDEX (scale 0-10) (Meloidogyne sp.; dose applied 2 kg ai/ha)	WEIGHT OF FRESH PLANT (Meloidogyne sp.; dose applied 2 kg ai/ha)	Phytotoxicity (scale 0-10) [1]
Cc1nc(C(F)F)c(C(=O)OCCC(F)=C(F)F)s1 [Comp. Nr. 2, 2-methyl-4-difluoromethyl-thiazole-5-carboxylate of 3,4,4-trifluoro-3-butenyl]	3%	90%	0.3	2.8	36 g	2.6	37 g	1.4	35 g	0
Cc1cc(C(=O)OCCC(F)=C(F)F)no1 [Comp. Nr. 129]				3.6	25 g	2.4	26 g	0.9	35 g	
O=C(OCCC(F)=C(F)F)c1cncnc1 [Comp. Nr. 127]				3.4	26 g	2.1	29 g	0.9	36 g	
O=C(OCCC(F)=C(F)F)c1cn2cc(C(F)(F)F)cc(Cl)c2n1 [Comp. Nr. 17]	3%	85%	0.3	3.3	26 g	2.8	28 g	2.2	31 g	0
Cn1cc(C(=O)OCCC(F)=C(F)F)c(C(F)F)n1 [Comp. Nr. 13]	0%	95%	0	2.1	36 g	1.2	38 g	1.2	39 g	0
O=C(OCCC(F)=C(F)F)c1cccnc1 [CR1, pyridyl-3-carboxylate of 3,4,4-trifluoro-3-butenyl, reference compound]	8%	70%	0.8	4.8	23 g	3.5	25 g	2.8	30 g	0
O=C(OCCC(F)=C(F)F)c1cccnc1C(F)(F)F [Comp. Nr. 12]	0%	95%	0	3.1	27 g	2.9	28 g	2.1	31 g	0
Cc1nnc(C(=O)OCCC(F)=C(F)F)s1 [Comp. Nr. 4, 5-methyl-1,3,4-thiadiazole-2-carboxylate of 3,4,4-trifluoro-3-butenyl]	3%	90%	0.3	2.2	35 g	1.9	37 g	1.9	34 g	0
O=C(OCCC(F)=C(F)F)c1csc(C(F)(F)F)n1 [Comp. Nr. 8]				2.5	25 g	2.3	27 g	1.2	37 g	
